Experimental findings from ChEMBL document CHEMBL6083219, “Rationally designed febuxostat-based hydroxamic acid and its pH-Responsive nanoformulation elicits anti-tumor activity” (Eur J Med Chem, 2024) are described below.

The test system of experiment [1] is HL-60. The format is functional, cell-based. The settings on record: Homo sapiens, HL-60, 48 h.
Another experiment deals with MDA-MB-231. Description: cells. The settings on record: Homo sapiens, MDA-MB-231, 48 h.
The subject of the next experiment is NCI-H1975. The format is functional, cell-based. The settings on record: Homo sapiens, NCI-H1975, 48 h.
Experiment [2] addresses Xanthine dehydrogenase/oxidase (Bos taurus, UniProt P80457). Description: Inhibition of bovine milk xanthine oxidase.
The test system of experiment [3] is Rattus norvegicus. Description: Anti-hyperuricemic activity against potassium oxonate-induced hyperuricemia Wistar rat model assessed as decrease in serum uric acid level at 10 mg/kg measured after 14 days. The settings on record: time 14.0 day. The format is functional, organism-based.
The subject of experiment [4] is Rattus norvegicus. Description: Anti-hyperuricemic activity against potassium oxonate-induced hyperuricemia Wistar rat model assessed as decrease in serum creatinine level at 10 mg/kg measured after 14 days. The settings on record: time 14.0 day. The format is functional, organism-based.
Experiment [5] concerns Rattus norvegicus. Description: Anti-hyperuricemic activity against potassium oxonate-induced hyperuricemia Wistar rat model assessed as decrease in blood urea level at 10 mg/kg measured after 14 days. The settings on record: time 14.0 day. The format is functional, organism-based.
The subject of experiment [6] is HL-60. Description: Downregulation of mTOR expression level in human HL-60 cells at 0.5 to 2 uM by Western blotting analysis. The format is functional, cell-based. The settings on record: dose 0.5-2 µM.

Each structure is given as a SMILES string. Active and inactive are the calls of the source. The rule behind the calls is not given here. Some results are limits rather than exact numbers.

Chain of Xanthine dehydrogenase/oxidase (P80457 whole entry): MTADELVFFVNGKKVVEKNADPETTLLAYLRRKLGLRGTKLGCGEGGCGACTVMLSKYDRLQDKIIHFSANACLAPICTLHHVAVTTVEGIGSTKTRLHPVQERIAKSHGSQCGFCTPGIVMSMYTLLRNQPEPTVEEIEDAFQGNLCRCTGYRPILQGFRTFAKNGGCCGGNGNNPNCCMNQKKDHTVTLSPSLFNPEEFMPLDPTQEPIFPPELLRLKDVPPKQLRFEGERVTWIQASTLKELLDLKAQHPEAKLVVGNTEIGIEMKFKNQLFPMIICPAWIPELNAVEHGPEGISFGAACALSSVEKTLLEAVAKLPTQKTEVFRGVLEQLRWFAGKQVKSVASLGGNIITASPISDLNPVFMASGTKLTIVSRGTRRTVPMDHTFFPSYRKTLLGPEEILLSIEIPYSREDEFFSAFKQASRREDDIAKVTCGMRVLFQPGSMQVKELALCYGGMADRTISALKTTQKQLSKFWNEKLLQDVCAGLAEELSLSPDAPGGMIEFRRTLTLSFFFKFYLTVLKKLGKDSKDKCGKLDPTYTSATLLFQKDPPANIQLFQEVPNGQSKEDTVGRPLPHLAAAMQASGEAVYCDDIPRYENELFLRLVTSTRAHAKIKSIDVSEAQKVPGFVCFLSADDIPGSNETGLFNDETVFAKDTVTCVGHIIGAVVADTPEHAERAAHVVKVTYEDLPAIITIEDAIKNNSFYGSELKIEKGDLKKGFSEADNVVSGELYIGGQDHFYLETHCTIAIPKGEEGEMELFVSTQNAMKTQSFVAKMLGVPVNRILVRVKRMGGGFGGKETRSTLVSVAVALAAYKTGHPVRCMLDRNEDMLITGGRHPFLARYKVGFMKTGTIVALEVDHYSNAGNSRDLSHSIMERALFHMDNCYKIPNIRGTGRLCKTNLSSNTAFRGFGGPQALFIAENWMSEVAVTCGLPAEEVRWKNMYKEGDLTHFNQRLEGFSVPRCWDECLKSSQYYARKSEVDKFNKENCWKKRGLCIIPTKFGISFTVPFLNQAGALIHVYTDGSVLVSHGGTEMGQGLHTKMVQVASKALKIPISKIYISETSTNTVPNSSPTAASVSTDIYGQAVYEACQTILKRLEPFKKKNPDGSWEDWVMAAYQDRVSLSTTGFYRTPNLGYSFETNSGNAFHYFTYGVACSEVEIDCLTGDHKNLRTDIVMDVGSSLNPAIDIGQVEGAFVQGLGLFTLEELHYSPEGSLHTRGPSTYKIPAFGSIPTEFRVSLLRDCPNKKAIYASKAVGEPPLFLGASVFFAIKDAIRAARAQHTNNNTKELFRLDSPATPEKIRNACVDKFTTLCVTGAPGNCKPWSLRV
Description for MDA-MB-231: Cytotoxicity against human MDA-MB-231 cells incubated for 48 hrs by MTT assay

With `Cc1nc(-c2ccc(OCC(C)C)c(C#N)c2)sc1C(=O)NCCCCCC(=O)NO`, the concentration for half-maximal inhibition (IC50) with HL-60 [1] turned out to be 1.29 µM; in the experiment on MDA-MB-231, 6.35 µM; with NCI-H1975 it was 6.77 µM; in experiment [2], 0.0062 µM.

Take `Cc1nc(-c2ccc(OCC(C)C)c(C#N)c2)sc1C(=O)NCc1ccc(C(=O)NCCCCCCC(=O)NO)cc1`: the 50% inhibitory concentration (IC50) with HL-60 [1] is 0.56 µM; in the experiment with MDA-MB-231, 9.9 µM; with NCI-H1975, > 50 µM; in experiment [2], > 2 µM.

`Cc1nc(-c2ccc(OCC(C)C)c(C#N)c2)sc1C(=O)NCCCCCCC(=O)Nc1ccccc1N`: the IC50 with HL-60 [1] is 1.54 µM; with MDA-MB-231, 41.1 µM; in the experiment with NCI-H1975 it was > 50 µM; in experiment [2] it was 0.85 µM.

As for `Cc1nc(-c2ccc(OCC(C)C)c(C#N)c2)sc1C(=O)NCc1ccc(NC(=O)CCCCCCCCC(=O)Nc2ccccc2N)cc1`, the 50% inhibitory concentration (IC50) in the experiment on HL-60 [1] was 4.25 µM; in the experiment on MDA-MB-231 it was 3.38 µM; with NCI-H1975, 28.8 µM; in experiment [2], > 2 µM.

As for `Cc1nc(-c2ccc(OCC(C)C)c(C#N)c2)sc1C(=O)Nc1ccccc1N`, the half-maximal inhibitory concentration (IC50) in the experiment with HL-60 [1] was 1.26 µM; with MDA-MB-231 it was > 50 µM; in the experiment with NCI-H1975 it was > 50 µM; in experiment [2] it was 0.076 µM.

Turning to `Cc1nc(-c2ccc(OCC(C)C)c(C#N)c2)sc1C(=O)NCc1ccc(NC(=O)CCCCCCCCC(=O)NO)cc1`, the IC50 was 3.04 µM in the experiment on HL-60 [1], > 50 µM in the experiment on MDA-MB-231, 8.61 µM in the experiment with NCI-H1975 and > 2 µM in experiment [2].

In the case of `Cc1nc(-c2ccc(OCC(C)C)c(C#N)c2)sc1C(=O)NCc1ccc(NC(=O)CCCCCCC(=O)NO)cc1`, the IC50 in the experiment with HL-60 [1] is 3.42 µM; in the experiment with MDA-MB-231 it was 12.4 µM; in the experiment on NCI-H1975 it was 12.6 µM; in experiment [2], > 2 µM.

For `Cc1nc(-c2ccc(OCC(C)C)c(C#N)c2)sc1C(=O)NCc1ccc(NC(=O)CCCCCC(=O)Nc2ccccc2N)cc1`, the 50% inhibitory concentration (IC50) in the experiment with HL-60 [1] is 11.8 µM; with MDA-MB-231 it was 19.6 µM; with NCI-H1975, 28.3 µM; in experiment [2] it was > 2 µM.

Consider `Cc1nc(-c2ccc(OCC(C)C)c(C#N)c2)sc1C(=O)NCc1ccc(C(=O)NO)cc1`, for which the 50% inhibitory concentration (IC50) was 0.805 µM in the experiment on HL-60 [1], 4.09 µM in the experiment on MDA-MB-231, 11.4 µM with NCI-H1975 and 0.021 µM in experiment [2].

`Cc1nc(-c2ccc(OCC(C)C)c(C#N)c2)sc1C(=O)NCc1ccc(C(=O)NCCCCCCC(=O)Nc2ccccc2N)cc1`: the IC50 with HL-60 [1] was 0.696 µM; in the experiment on MDA-MB-231, > 50 µM; in the experiment with NCI-H1975, > 50 µM; in experiment [2] it was > 2 µM.

Regarding `Cc1nc(-c2ccc(OCC(C)C)c(C#N)c2)sc1C(=O)NCc1ccc(C(=O)Nc2ccccc2N)cc1`, the half-maximal inhibitory concentration (IC50) was 1.01 µM with HL-60 [1], 9.63 µM with MDA-MB-231, 18.3 µM in the experiment with NCI-H1975 and > 2 µM in experiment [2].

In the case of `Cc1nc(-c2ccc(OCC(C)C)c(C#N)c2)sc1C(=O)NCc1ccc(NC(=O)CCCCCCC(=O)Nc2ccccc2N)cc1`, the IC50 is 1.58 µM in the experiment with HL-60 [1], 5.55 µM with MDA-MB-231, 9.36 µM with NCI-H1975 and > 2 µM in experiment [2].

In the case of `Cc1nc(-c2ccc(OCC(C)C)c(C#N)c2)sc1C(=O)NCc1ccc(NC(=O)CCCCCC(=O)NO)cc1`, the IC50 with HL-60 [1] was 18 µM; in the experiment on MDA-MB-231 it was > 50 µM; with NCI-H1975 it was > 50 µM; in experiment [2], > 2 µM.

With `Cc1nc(-c2ccc(OCC(C)C)c(C#N)c2)sc1C(=O)O` [FEBUXOSTAT], the IC50 in the experiment with HL-60 [1], in the experiment with MDA-MB-231 and in the experiment with NCI-H1975 was > 100 µM throughout. Also, the outcome in the experiment on Rattus norvegicus [3], with Rattus norvegicus [4] and in the experiment with Rattus norvegicus [5] was Active.

Consider `O=C(CCCCCCC(=O)Nc1ccccc1)NO`, for which, in the experiment with HL-60 [6], the result was Active.

For `Cc1nc(-c2ccc(OCC(C)C)c(C#N)c2)sc1C(=O)NO`, the half-maximal inhibitory concentration (IC50) was 10.6 µM in the experiment on HL-60 [1], > 50 µM with MDA-MB-231, > 50 µM in the experiment on NCI-H1975 and 0.0033 µM in experiment [2].

For the compound `Cc1nc(-c2ccc(OCC(C)C)c(C#N)c2)sc1C(=O)NCCCCCC(=O)Nc1ccccc1N`, the IC50 stood at 1.71 µM in the experiment with HL-60 [1], 7.08 µM in the experiment on MDA-MB-231, 18.2 µM in the experiment on NCI-H1975 and 0.7 µM in experiment [2].

In the case of `Cc1nc(-c2ccc(OCC(C)C)c(C#N)c2)sc1C(=O)NCc1ccc(NC(=O)CCCCCCCC(=O)NO)cc1`, the IC50 was > 50 µM in the experiment with HL-60 [1], 31.5 µM with MDA-MB-231, 18.7 µM in the experiment on NCI-H1975 and > 2 µM in experiment [2].

Take `Cc1nc(-c2ccc(OCC(C)C)c(C#N)c2)sc1C(=O)NCc1ccc(NC(=O)CCCCCCCC(=O)Nc2ccccc2N)cc1`: the half-maximal inhibitory concentration (IC50) was 1.64 µM in the experiment with HL-60 [1], 3.81 µM with MDA-MB-231, 11.2 µM in the experiment on NCI-H1975 and > 2 µM in experiment [2].

In general, IC50 refers to the point on the concentration scale where inhibition reaches its midpoint. Lower therefore signals greater potency.
